Experimental data from patent US7517526B2, “Enhancement of antibody-cytokine fusion protein mediated immune responses by combined treatment with immunocytokine uptake enhancing agents” (Merck Patent GmbH, priority 2000, dated 2009).
≈ marks a conversion by molar mass, not a printed value. Like-named read-outs stand apart in the source and are kept apart here.

Experiments:
LLC/KSA tumors = assay type: in vivo
Procedure: (§1) For tumor growth studies either LLC/KSA or CT26/KSA tumors were implanted subcutaneously on the backs of mice. For LLC/KSA studies, tumors were transplanted from several stock tumors that had been injected with a single cell suspension of 1×10^6 cells in 100 ul of PBS. After about two weeks, tumors were aseptically collected, passed through a sieve fitted with a 150 μm screen. Cells were then passed through a syringe and 23 gauge needle tow or three times, washed twice, and resuspended in PBS. A single cell suspension of 1×10^6 LLC/KSA cells in 100 ul of PBS was injected subcutaneously using a 30 ½ gauge needle on the backs of mice. For CT26/KSA studies, cells growing exponentially in culture were injected as a single cell suspension of 1×10^6 cells in 100 μl of PBS. After tumors had become established, about 2 weeks after implantation, dosing was initiated on Day 0. Tumors were measured with calipers in three dimensions twice weekly. Tumor volumes were calculated using the equation: Volume=½×4/3π(L/2×W/2×H) where L=length, W=width and H=height of the tumor. Animals were weighed and general health was monitored during the course of the study. When tumors became necrotic or if animals became moribund, the animals were euthanized by CO2 asphyxiation.
Data are presented in graphic form. Graphs depict individual or average tumor volumes (+/− SEM) during and after dosing. Data are also expressed as the percent of control of average tumor volumes from treated mice relative to vehicle treated mice. Student's t test was performed on the individual tumor volumes to determine significant differences.

[1] = system: multidrug resistant tumors; settings: cited from earlier work
P-glycoprotein = P-glycoprotein (Homo sapiens, UniProt P08183); settings: cited from earlier work
[2] = cited from earlier work
[3] = system: breast carcinoma subcutaneous tumors; assay: Tumor growth assay, established breast carcinoma subcutaneous tumors; assay type: in vivo, mouse; settings: FIG. 9B; cyclophosphamide single dose 80 mg/kg; huKS-IL2 30 μg x 5 daily doses, 3 days after cyclophosphamide in combination; Day 25
[4] = system: 4T1 breast carcinoma cells; settings: FIG. 9; cyclophosphamide single dose 15 or 40 mg/kg; combination: huKS-IL2 15 ug/day for 5 days from three days later
Procedure: 4T1 breast carcinoma cells were injected intravenously into immuno-competent mice to establish pulmonary metastases 3 days before treatment.

[5] = system: lung carcinoma subcutaneous tumors; assay: Tumor growth assay, established lung carcinoma subcutaneous tumors; assay type: in vivo, mouse; settings: FIG. 9C; cyclophosphamide single dose 80 mg/kg; huKS-IL2 20 μg x 5 daily doses, 3 days after cyclophosphamide in combination; Day 20
[6] = system: 4T1/KSA breast carcinoma cells; assay: Experimental lung metastasis model with 4T1/KSA cells; assay type: in vivo, mouse; settings: for reduction of average lung weights: FIG. 4, combination with KS-IL2 15 μg/dose x 3 days given 4 hr after paclitaxel
Procedure: For experimental lung metastases studies, a single cell suspension of 2.5×10^5 4T1/KSA cells in 100 μl of PBS was slowly injected using a 27½ gauge needle into the lateral tail vein on Day 0. About 3 weeks-after inoculation animals were sacrificed; their lungs were removed and weighed. […] Data are presented in graphic form. Graphs depict average tumor burdens (+/− SEM) at time of sacrifice. Tumor burden was determined by subtracting the weight of a normal lung from the weight of the experimental lungs.
For this experiment we used an experimental lung metastasis model induced with 4T1/KSA breast carcinoma cells. The doses of the drugs were selected to be sub-optimal by themselves so that any potential additive or synergistic activity could be observed.

CT26/KSA cells = assay: Cytotoxicity assay (MTS, verified by crystal violet); assay type: cell-based; settings: Mus musculus, CT26, 144 h; read-out: Paclitaxel IC50
Procedure: (§2) The cell lines engineered for use in animal models (example 1) were tested for their sensitivity to taxane-induced cytotoxicity in cell culture in the presence or absence of the an IL-2 based immunocytokine consisting of the humanized form of the KS-1/4 antibody fused at the carboxyl terminus of the H chain to human IL-2 (huKS-huγ1-huIL2, hereafter abbreviated, KS-IL2). Cells were seeded at 1000 cell/well in 96 well flat-bottom plates and incubated for 24 hours at 37° C., 7% CO2. Paclitaxel, at 2-fold dilutions from 200 ng/ml to 3.125 ng/ml, KS-IL2, at 200 ng/ml and IL-2, at 33.3 ng/ml (the equivalent amount of IL-2 in KS-IL2) were added in duplicate to the cell culture plates and incubated for 6 days at 37° C., 7% CO2. The MTS calorimetric assay (Promega), a measure of cell viability based on the cellular conversion of a tetrazolium salt, was performed directly in the 96 well plates. After plates were read and recorded, viable adherent cells were stained with Crystal violet (Sigma, St. Louis, Mo). Crystal violet stained plates were used to verify MTS assay results. […] The IC50 is the concentration of drug that produced cytotoxicity at a level of 50% of control.
(§3) A cytotoxicity assay was performed with paclitaxel (3 to 200 ng/ml) alone or combined with KS-IL2 (200 ng/ml) or IL-2 (33.3 ng/ml, the equivalent amount of IL-2 in KS-IL2) against CT26/KSA, LLC/KSA and 4T1/KSA cells.

[7] = system: CT26/KSA colon carcinoma skin tumors; assay: CT26/KSA established skin tumor growth assay; assay type: in vivo, mouse; settings: paclitaxel single dose 75 mg/kg
Procedure: as §1
Data are presented in graphic form. Graphs depict individual or average tumor volumes (+/− SEM) during and after dosing. […]

[8] = system: CT26/KSA liver metastases; settings: FIG. 6, combination: KS-IL2 7 ug for 5 days from one day later
Procedure: For experimental hepatic metastases studies, mice were anesthetized using 80 mg/kg ketamine HCL (Fort Dodge Animal Health, Fort Dodge, Iowa) and 5 mg/kg xylazine (Bayer, Shawnee Mission, Kans.). A single cell suspension of 1×10^5 CT26/KSA cells in 100 μl of DMEM containing 25 mM HEPES (GIBCO) was injected using a 27½ gauge needle beneath the splenic capsule over a period of 60 seconds on Day 0. After another 2 minutes the splenic vessels were cauterized with a cautery unit (Roboz, Rockville, Md.) and the spleen removed. Animals were sutured using autoclips. Three weeks after inoculation the animals were sacrificed; their livers were removed and weighed. The livers were then fixed and stained in Bouin's solution (Sigma, St. Louis Mo.).
Graphs depict average tumor burdens (+/− SEM) at the time of sacrifice. Tumor burdens were determined by subtracting the weight of a normal liver from the weight of the experimental livers. Data are also expressed as the percent of control of the average tumor burden from treated mice relative to vehicle treated mice. Student's t test was performed on the individual tumor burdens to determine significant differences.
A second experiment was performed using the CT26/KSA model, this time testing the effect of combined therapy on established liver metastases and again using the 24 hr delay between paclitaxel administration and KS-IL2 treatment. We also compared the dose response of paclitaxel in the combination therapy. Mice were injected with 25, 50, or 75 mg/kg of paclitaxel on Day 5 after metastasis induction, alone or followed one day later with KS-IL2 (7 ug) for 5 days.

LLC/KSA cells = assay: Cytotoxicity assay (MTS, verified by crystal violet); assay type: cell-based; settings: Mus musculus, 144 h; read-out: Paclitaxel IC50
Procedure: as §2, §3

4T1/KSA cells = assay: as above; assay type: cell-based; settings: Mus musculus, 144 h; read-out: Paclitaxel IC50
Procedure: as §2, §3

[9] = comparative statement, Polizzi et al. 1999
[10] = FIG. 3, paclitaxel multiple doses 50 mg/kg every other day, combination: KS-IL2 one week following paclitaxel

Sequence of P-glycoprotein (P08183 whole entry): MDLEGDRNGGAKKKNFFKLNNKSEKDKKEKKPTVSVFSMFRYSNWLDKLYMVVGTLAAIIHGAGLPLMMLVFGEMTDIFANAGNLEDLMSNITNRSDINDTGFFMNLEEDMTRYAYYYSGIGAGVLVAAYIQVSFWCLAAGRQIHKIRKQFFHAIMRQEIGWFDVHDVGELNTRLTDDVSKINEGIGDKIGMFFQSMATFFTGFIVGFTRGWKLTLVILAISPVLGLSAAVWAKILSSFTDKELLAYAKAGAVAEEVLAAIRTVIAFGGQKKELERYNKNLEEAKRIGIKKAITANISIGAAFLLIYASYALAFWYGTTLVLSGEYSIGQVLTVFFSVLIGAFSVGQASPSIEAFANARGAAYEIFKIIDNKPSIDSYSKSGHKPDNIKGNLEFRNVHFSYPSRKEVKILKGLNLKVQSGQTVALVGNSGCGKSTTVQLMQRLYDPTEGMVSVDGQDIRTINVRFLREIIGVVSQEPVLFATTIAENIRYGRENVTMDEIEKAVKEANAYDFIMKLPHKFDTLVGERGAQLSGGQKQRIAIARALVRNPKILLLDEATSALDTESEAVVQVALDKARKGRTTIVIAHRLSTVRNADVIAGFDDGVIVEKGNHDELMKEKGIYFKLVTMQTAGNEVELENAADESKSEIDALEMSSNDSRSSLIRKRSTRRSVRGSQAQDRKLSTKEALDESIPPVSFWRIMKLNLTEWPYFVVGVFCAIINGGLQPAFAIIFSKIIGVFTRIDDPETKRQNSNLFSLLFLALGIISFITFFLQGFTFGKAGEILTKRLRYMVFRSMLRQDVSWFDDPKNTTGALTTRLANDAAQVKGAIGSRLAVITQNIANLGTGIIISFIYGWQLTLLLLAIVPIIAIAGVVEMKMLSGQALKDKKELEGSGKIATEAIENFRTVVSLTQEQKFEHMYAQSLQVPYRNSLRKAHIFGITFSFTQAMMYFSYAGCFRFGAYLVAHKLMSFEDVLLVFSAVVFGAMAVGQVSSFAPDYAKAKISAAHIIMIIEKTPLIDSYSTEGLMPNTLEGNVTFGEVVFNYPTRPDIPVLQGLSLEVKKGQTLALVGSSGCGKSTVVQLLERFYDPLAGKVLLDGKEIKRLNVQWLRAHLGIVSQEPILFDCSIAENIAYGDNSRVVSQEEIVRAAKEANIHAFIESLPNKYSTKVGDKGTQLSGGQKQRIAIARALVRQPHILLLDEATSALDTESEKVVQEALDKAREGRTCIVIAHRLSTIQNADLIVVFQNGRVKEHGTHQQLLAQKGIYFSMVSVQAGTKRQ

## N.N.O=C([O-])C1(C(=O)[O-])CCC1.[Pt+2] [Carboplatin]
LLC/KSA tumors; FIG. 10, Carboplatin 75 mg/kg Day 0, KS-IL2 20 ug per day for 5 days, three days after Carboplatin in combination
  effect on tumor growth / average tumor volume on Day 20: modest decrease

## CC(=O)O[C@H]1C(=O)[C@@]2(C)[C@H]([C@H](OC(=O)c3ccccc3)[C@]34OC(=O)O[C@H]3[C@H](OC(=O)[C@H](O)[C@H](CC(C)C)NC(=O)OC(C)(C)C)C(C)=C1C4(C)C)[C@]1(OC(C)=O)CO[C@@H]1C[C@@H]2O [IDN5109]
[1]
  activity against multidrug resistant tumors: generally more active
P-glycoprotein
  substrate for P-glycoprotein: poor substrate
[2]; [9]
  neurotoxic side effects: less neurotoxic side effects
  tolerated dose: higher tolerated dose
[2]; in vivo, po
  oral bioavailability: orally bioavailable

## O=P1(N(CCCl)CCCl)NCCCO1 (centres unmarked) [cyclophosphamide]
[3]
  reduction of average tumor volumes: 69%
[4]
  lung metastasis tumor burden: modest reduction
[5]
  reduction of average tumor volumes: 27%

## CC(=O)O[C@H]1C(=O)[C@@]2(C)[C@H]([C@H](OC(=O)c3ccccc3)[C@]3(O)C[C@H](OC(=O)[C@H](O)[C@@H](NC(=O)c4ccccc4)c4ccccc4)C(C)=C1C3(C)C)[C@]1(OC(C)=O)CO[C@@H]1C[C@@H]2O [paclitaxel]
LLC/KSA tumors; FIG. 2, paclitaxel single dose 80 mg/kg, KS-IL2 20 μg i.v. Days 0-4
  effect on tumor growth, agent given alone: No effect
LLC/KSA tumors; [10]
  average tumor volume: 63 % of control
  tumor growth delay (TGD): 4 days
[6]; 25 mg/kg of paclitaxel given 3 times every other day
  weight loss, comparison of groups: greatest weight loss
[6]; paclitaxel multiple doses 25 mg/kg x 3 days
  reduction of average lung weights: 49%
[6]; paclitaxel single dose 75 mg/kg
  reduction of average lung weights: 43%
CT26/KSA cells
  IC50: 0.027 µg/mL (≈ 0.0316 µM)
[7]; Example 9, huKS-muγ2a-muIL12 5 μg per day for 5 days, starting 24 hr after paclitaxel in combination
  effect on tumor growth: very little effect
[7]; FIG. 5
  effect on tumor growth, alone: no effect
[8]; paclitaxel 25 mg/kg on Day 5
  tumor burden: 49 % of control
[8]; paclitaxel 50 mg/kg on Day 5
  tumor burden: 23 % of control
[8]; paclitaxel 75 mg/kg on Day 5
  tumor burden: 10 % of control
LLC/KSA cells
  IC50: 0.006 µg/mL (≈ 0.00703 µM)
4T1/KSA cells
  IC50: 0.016 µg/mL (≈ 0.0187 µM)
